Experimental data reported in patent US12558337B2, “Formulations comprising melflufen” (ON[…], priority 2019, dated 2026).
Where “and” joins values, the source holds several entries; their conditions need not be identical. Equal values may be shown once.

Key:
Type in all cases: physicochemical
[1] = Stability of isolated melflufen freebase oil; conditions: colorless oil; room temperature; several days
Experimental: The hydrochloride salt of melflufen may be prepared as disclosed in WO 01/96367, which is incorporated herein by reference. Ethanesulfonate, maleate and p-toluenesulfonate salts of melflufen were prepared by treating the melflufen freebase with 1 equivalent of the respective acid in dichloromethane or ethyl acetate. If required, heptane was added to initiate salt precipitation. All salts were isolated as white solids in a 1:1 ratio of melflufen and counterion, and dried under high vacuum. Melflufen freebase was prepared from melflufen hydrochloride using NaHCO3 and dichloromethane (DCM). Melflufen hydrochloride was suspended in 100 mL of dichloromethane before an ice-cold solution of NaHCO3(aq) was added. The mixture was shaken for 30 seconds and the phases were allowed to settle. The organic phase was collected and dried over MgSO4 before the solvent was removed in vacuo at 0° C. Melflufen freebase was isolated as a colorless oil. No degradation of melflufen was observed by HPLC analysis and the oil was stable at room temperature for several days.

[2] = Stability study of formulation containing melflufen (OPD-5) and propylene glycol at −20° C. and −70° C.; conditions: in propylene glycol
Experimental: 536.25 mg of melflufen (OPD-5) was weighed into a […] volumetric flask. The flask was then filled with propylene glycol (W294004-1 Kg-K, Lot no: MKCD8681, Sigma-Aldrich). The resulting mixture was vortexed for 3 minutes. The mixture was then stirred for 15 minutes at 28° C. with occasional vortexing to furnish a clear solution having a melflufen concentration of approximately 20 mg/mL (excluding the mass of the counterion). The solution was aliquoted into 1 mL vials and stored at −70° C. or at −20° C.
The concentration and purity (% relative peak area) of melflufen in the propylene glycol formulation was analysed at time 0 (T0b) and then every 1 month by RP-HPLC. For each time point, two replicated were analysed (i.e. two separate vials of the formulation). At each time point the vials were visually checked for any color change or precipitation.
RP-HPLC analysis was performed using an Agilent 1100 series Liquid Chromatography, and an XBridge® C18 (2.1×100 mm, 3.5 μm) column. The method used a 5-95% B gradient over 6 min and a flow of 0.8 mL/min (mobile phase A: 0.1% formic acid in water; mobile phase B: 0.1% formic acid in acetonitrile), a column temperature of 55° C., a sampler temperature of 25° C., and UV detection at 262 nm. Samples were then diluted to 200 μg/mL concentration in DMA before injection into RP-HPLC. An injection volume of 5 μL was used.

[3] = Stability study of formulation containing melflufen (OPD-5) and PEG 300 at 2-8° C., 25° C. and 40° C. (RP-HPLC, visual appearance); conditions: in PEG 300; for change in melflufen concentration on storage: up to 164 days
Experimental: (§1) Vials (2R type 1 glass vials, Gerresheimer, #35601558) were washed with purified water (≤0.2 μmS/cm, <10 ppb Total Organic Carbon (TOC)). Afterwards, the vials were dried and heat-treated at 300° C. for 2 hours. Rubber stoppers were autoclaved at 121° C. and 2 bar for 15 min.
(§2) The formulation was prepared by dissolving melflufen (OPD-5) at a concentration of approximately 20 mg/mL (excluding the mass of the counterion) in polyethylene glycol (polyethylene glycol 300, Emprove exp., Ph. Eur, Merck Chemicals, #K47544702). 1 mL of the melflufen solution was added into each vial. The filled vials were then closed with a rubber stopper and crimp capped. The 1 mL samples were analysed at T0 (i.e. before storage) and after storage for approximately 4 weeks (T1a), 8 weeks (T2a), 12 weeks (T3a), and 24 weeks (T4a) at 2-8° C., 25° C. or 40° C.
(§3) RP-HPLC analysis was performed using an Agilent 1100 series Liquid Chromatography, and an XBridge® Shield (RP18, 3.5 μm, 4.6×150 mm) column. The method used a 0-80% B gradient over 20 min and a flow of 1.0 mL/min (mobile phase A: 10 mM ammonium acetate pH 5.0/acetonitrile 86/14 v/v; mobile phase B: acetonitrile), a column temperature of 20° C., a sampler temperature of 5° C., and UV detection at 262 nm. The pharmaceutical formulations were diluted to a melflufen concentration of 0.8 mg/mL using an ethanol/acetonitrile diluent (3:7 v/v) prior to RP-HPLC analysis.

[4] = Solubility of melflufen (OPD-5) in PEG 300; conditions: approximately 20 mg/mL prepared
Experimental: as §2

[5] = Solubility of melflufen (OPD-5) in propylene glycol; conditions: approximately 20 mg/mL prepared
Experimental: (§4) The formulation was prepared by dissolving melflufen (OPD-5) at a concentration of approximately 20 mg/mL (excluding the mass of the counterion) in propylene glycol (1,2-Propanediol, EMPROVE® exp Ph Eur, BP, USP, Merck Chemicals, #K49954578). 1 mL of the melflufen solution was added into each vial. The filled vials were then closed with a rubber stopper and crimp capped. The 1 mL samples were analysed at T0 (i.e. before storage) and after storage for approximately 4 weeks (T1), 8 weeks (T2), 12 weeks (T3), and 24 weeks (T4) at 2-8° C., 25° C. or 40° C.

[6] = Stability study of formulation containing melflufen (OPD-5) and propylene glycol at 2-8° C., 25° C. and 40° C. (RP-HPLC, visual appearance); conditions: in propylene glycol; for change in melflufen concentration on storage: up to 168 days
Experimental: as §1, §4
as §3, with “an)(Bridge®” for “an XBridge®”

[7] = 2-8° C., T1a (26 days), hydrochloride
[8] = 2-8° C., T2a (54 days), hydrochloride
[9] = 2-8° C., T3a (94 days), hydrochloride
[10] = 25° C., T1a (26 days), hydrochloride
[11] = 25° C., T2a (54 days), hydrochloride
[12] = 25° C., T3a (94 days), hydrochloride
[13] = 25° C., T4a (164 days), hydrochloride
[14] = 40° C. (accelerated storage condition), over time
[15] = 2-8° C., T1 (31 days), hydrochloride
[16] = 2-8° C., T4 (168 days), hydrochloride
[17] = 25° C., T1 (31 days), hydrochloride
[18] = 25° C., T3 (98 days), hydrochloride
[19] = 25° C., T4 (168 days), hydrochloride

In the case of `CCOC(=O)[C@H](Cc1ccc(F)cc1)NC(=O)[C@@H](N)Cc1ccc(N(CCCl)CCCl)cc1` [Melflufen freebase, L-Melphalanyl-4-fluoro-L-phenylalanine ethyl ester], the “stability of the oil” value [1] is reported as “stable”.

In the case of `Cl.[2H]C([2H])([2H])C([2H])([2H])OC(=O)[C@H](Cc1ccc(F)cc1)NC(=O)[C@@H](N)Cc1ccc(N(CCCl)CCCl)cc1` [OPD-5, (^2H5)ethyl (2S)-2-[(2S)-2-amino-3-{4-[bis(2-chloroethyl)amino]phenyl}propanamido]-3-(4-fluorophenyl)propanoate hydrochloride], the “time for which the formulation was stable” value ([2]; −20° C.) is reported as “at least 6 months”, the “change in melflufen (OPD-5) concentration” value ([2]; −20° C., 6 month test period) is reported as “no notable change” and the “melflufen purity retained (relative to the melflufen purity before storage of the formulation)” value ([2]; −20° C., 6 months) is reported as “greater than 99.5%”. For the same compound, the “colour change or precipitation (visual check)” value ([2]; −70° C. and −20° C., 6-8 month test period) was “No colour change or precipitation”, the “change in melflufen (OPD-5) concentration” value ([2]; −70° C., 8 month test period) was “no notable change” and the “melflufen purity retained (relative to the melflufen purity before storage of the formulation)” value ([2]; −70° C., 8 months) was “greater than 99.5%”. For the same compound, the visual appearance ([3]; 2-8° C., 26 days (T1a)) was “slight yellow colouration”, the visual appearance ([3]; 2-8° C., 54 days (T2a), 94 days (T3a) and 164 days (T4a)) was “small increase in the intensity of the yellow colouration” and the “Concentration of melfufen (ODP-5)” value [3, 7] was 19900 µg/mL and 19800 µg/mL. For the same compound, the “Purity of melfufen (ODP-5)” value [3, 7] was 96.7 % relative peak area and 96.9 % relative peak area, the “Concentration of melfufen (ODP-5)” value [3, 8] was 19900 µg/mL and 19300 µg/mL and the “Purity of melfufen (ODP-5)” value [3, 8] was 95.2 % relative peak area and 95.5 % relative peak area. The “Concentration of melfufen (ODP-5)” value [3, 9] was 18700 µg/mL and 18900 µg/mL, the “Purity of melfufen (ODP-5)” value [3, 9] was 92.7 % relative peak area and 92.6 % relative peak area and the “Concentration of melfufen (ODP-5)” value ([3]; 2-8° C., T4a (164 days)) was 18700 µg/mL. For the same compound, the “Purity of melfufen (ODP-5)” value ([3]; 2-8° C., T4a (164 days), hydrochloride) was 91.4 % relative peak area and 91.3 % relative peak area, the “change in melflufen concentration on storage” value (“change … on storage” below) ([3]; 2-8° C.) was “no significant change” and the “Concentration of melfufen (ODP-5)” value [3, 10] was 18100 µg/mL and 17900 µg/mL. The “Purity of melfufen (ODP-5)” value [3, 10] was 89.3 % relative peak area and 89.6 % relative peak area, the “Concentration of melfufen (ODP-5)” value [3, 11] was 14400 µg/mL and 15300 µg/mL and the “Purity of melfufen (ODP-5)” value [3, 11] was 83.8 % relative peak area and 85.1 % relative peak area. For the same compound, the “Concentration of melfufen (ODP-5)” value [3, 12] was 11200 µg/mL and 11300 µg/mL, the “Purity of melfufen (ODP-5)” value [3, 12] was 74.2 % relative peak area and 74.7 % relative peak area and the “Concentration of melfufen (ODP-5)” value [3, 13] was 9800 µg/mL and 9500 µg/mL. For the same compound, the “Purity of melfufen (ODP-5)” value [3, 13] was 70 % relative peak area and 68.1 % relative peak area, the visual appearance ([3]; 25° C., over time (T1a to T4a)) was “yellow to brown colouration that increased in intensity over time” and the “change … on storage” value ([3]; 25° C.) was “decrease over time”. For the same compound, the visual appearance [3, 14] was “yellow to brown colouration that increased in intensity over time”, the “solubility in PEG 300” value [4] was “readily soluble” and the “solubility in propylene glycol” value [5] was “readily soluble”. For the same compound, the “Concentration of melfufen (ODP-5)” value [6, 15] was 20100 µg/mL and 20200 µg/mL, the “Purity of melfufen (ODP-5)” value [6, 15] was 99.1 % relative peak area and 99.3 % relative peak area and the “Purity of melfufen (ODP-5)” value ([6]; 2-8° C., T2 (59 days)) was 99.2 % relative peak area. The “Concentration of melfufen (ODP-5)” value ([6]; 2-8° C., T2 (59 days), hydrochloride) was 19800 µg/mL and 20300 µg/mL, the “Concentration of melfufen (ODP-5)” value ([6]; 2-8° C., T3 (98 days)) was 20500 µg/mL and the “Purity of melfufen (ODP-5)” value ([6]; 2-8° C., T3 (98 days), hydrochloride) was 99.0 % relative peak area and 98.5 % relative peak area. For the same compound, the “Concentration of melfufen (ODP-5)” value [6, 16] was 18400 µg/mL and 18300 µg/mL, the “Purity of melfufen (ODP-5)” value [6, 16] was 95.4 % relative peak area and 95.8 % relative peak area and the visual appearance ([6]; 2-8° C., at each time point (T1, T2, T3 and T4)) was “no visible colouration”. The “change … on storage” value ([6]; 2-8° C.) was “no significant change”, the “Concentration of melfufen (ODP-5)” value [6, 17] was 15700 µg/mL and 15800 µg/mL and the “Purity of melfufen (ODP-5)” value [6, 17] was 89.0 % relative peak area and 89.3 % relative peak area. The “Purity of melfufen (ODP-5)” value ([6]; 25° C., T2 (59 days)) was 81.3 % relative peak area, the “Concentration of melfufen (ODP-5)” value ([6]; 25° C., T2 (59 days), hydrochloride) was 14100 µg/mL and 12200 µg/mL and the “Concentration of melfufen (ODP-5)” value [6, 18] was 8800 µg/mL and 8400 µg/mL. For the same compound, the “Purity of melfufen (ODP-5)” value [6, 18] was 68.1 % relative peak area and 66.6 % relative peak area, the “Concentration of melfufen (ODP-5)” value [6, 19] was 5100 µg/mL and 4900 µg/mL and the “Purity of melfufen (ODP-5)” value [6, 19] was 49.9 % relative peak area and 48.7 % relative peak area. The visual appearance ([6]; 25° C., over time (T1 to T4)) was “yellow to brown colouration that increased in intensity over time”, the “change … on storage” value ([6]; 25° C.) was “decrease over time” and the visual appearance [6, 14] was “yellow to brown colouration that increased in intensity over time”. The “melflufen purity retained (relative to the melflufen purity before storage of the formulation)” value ([6]; about 5° C. (2 to 8° C.), over 50 days) was “greater than 95%”.
